{"source": "paper PMC6089501", "about": "(Journal of Medicinal Chemistry, 2018)", "key": {"[1]": {"system": "M. tuberculosis QcrB T313I mutant strain", "assay_type": "cell-based, Mycobacterium tuberculosis"}, "[2]": {"system": "M. tuberculosis QcrB M342T mutant strain", "assay_type": "cell-based, Mycobacterium tuberculosis"}}}
{"smiles": "NC(=O)c1sc(N2CCOCC2)cc1OCCc1ccc(OC(F)(F)F)cc1", "note": "[Compound 37, 5-Morpholino-3-[2-[4-(trifluoromethoxy)phenyl]ethoxy]thiophene-2-carboxamide]", "values": [{"measurement": "MIC T313I", "setting": "[1]", "value": 11, "unit": "µM"}, {"measurement": "fold shift T313I", "setting": "[1]", "value": 46}]}
{"smiles": "NC(=O)c1sc(N2CCOCC2)cc1OCCc1ccccc1", "note": "[Compound 1, 5-Morpholino-3-phenethoxythiophene-2-carboxamide]", "values": [{"measurement": "MIC T313I", "setting": "[1]", "value": 53, "unit": "µM"}, {"measurement": "fold shift T313I", "setting": "[1]", "value": 41}, {"measurement": "MIC M342T", "setting": "[2]", "value": 25, "unit": "µM"}, {"measurement": "fold shift M342T", "setting": "[2]", "value": 19}]}
{"smiles": "NC(=O)c1sc(-c2ccncc2)cc1OCCc1ccccc1", "note": "[Compound 35, 3-(2-Phenylethoxy)-5-(4-pyridyl)thiophene-2-carboxamide]", "values": [{"measurement": "MIC T313I", "setting": "[1]", "value": ">50", "unit": "µM"}, {"measurement": "fold shift T313I", "setting": "[1]", "value": ">8.6"}, {"measurement": "MIC M342T", "setting": "[2]", "value": ">20", "unit": "µM"}, {"measurement": "fold shift M342T", "setting": "[2]", "value": ">3"}]}
{"smiles": "NC(=O)c1sc(N2CCOCC2)cc1OCCc1cccc(F)c1", "note": "[Compound 39, 3-[2-(3-Fluorophenyl)ethoxy]-5-morpholinothiophene-2-carboxamide]", "values": [{"measurement": "MIC T313I", "setting": "[1]", "value": 59, "unit": "µM"}, {"measurement": "fold shift T313I", "setting": "[1]", "value": 110}, {"measurement": "MIC M342T", "setting": "[2]", "value": 7, "unit": "µM"}, {"measurement": "fold shift M342T", "setting": "[2]", "value": 14}]}
{"smiles": "CNC(=O)c1sc(N2CCOCC2)cc1OCCc1ccccc1", "note": "[Compound 21, N-Methyl-5-morpholino-3-(2-phenylethoxy)thiophene-2-carboxamide]", "values": [{"measurement": "MIC T313I", "setting": "[1]", "value": ">20", "unit": "µM"}, {"measurement": "fold shift T313I", "setting": "[1]", "value": ">250"}, {"measurement": "MIC M342T", "setting": "[2]", "value": 4.8, "unit": "µM"}, {"measurement": "fold shift M342T", "setting": "[2]", "value": 60}]}
